Laboratory results taken from US8921373B2, “Compounds having TRPV1 antagonistic activity and uses thereof” (Shionogi & Co., Ltd., priority 2010, dated 2014).
Blank lines part the entries; values can stand above or below the compound they belong to.

Experiments:
[1] = molecular target: T1, human recombinant TRPV1 (Homo sapiens (Human), UniProt Q8NER1); experiment: TRPV1 Capsaicin-Based Assay (Protocol 2, TRPV1/CHO cells, Fluo-4, FLIPR); assay type: cell-based
Procedure: (§1) For Protocol 2, a Chinese Hamster Ovary cell line (CHO) that has been engineered to constitutively express human recombinant TRPV1 was used (TRPV1/CHO cells). The TRPV1/CHO cell line was generated as described below.
One day prior to assay, TRPV1/CHO cells were seeded in 96-well clear-bottom black plates (20,000 cells/well) in growth media. On the day of the experiment, the cells were washed with 0.2 mL 1× Hank's Balanced Salt Solution (Life Technologies) containing 1.6 mM CaCl2 and 20 mM HEPES, pH 7.4 (“wash buffer”). Subsequently, the cells were loaded by incubation in 0.1 mL of wash buffer containing Fluo-4 at 3 μM final concentration. After 1 hour, the cells were washed twice with 0.2 mL wash buffer and resuspended in 0.1 mL wash buffer. The plates were then transferred to a Fluorescence Imaging Plate Reader (Molecular Devices). Fluorescence intensity was monitored for 15 seconds to establish a baseline. Subsequently, test compounds diluted in assay buffer (1× Hank's Balanced Salt Solution containing 1 mM CaCl2 and 20 mM HEPES, pH 7.4) containing 1% DMSO were added to the cell plate and fluorescence was monitored for 2 minutes. […] Human TRPV1 was then activated by the addition of 50 μL capsaicin (100 nM final concentration) and plates incubated for an additional 3 min. Data were collected over the entire time course and analyzed using Excel and the curve-fitting formula GraphPad Prism.

[2] = molecular target: T1, human recombinant TRPV1; experiment: TRPV1 pH-Based Assay (Protocol 2, Ca2+ response in TRPV1/CHO cells, Fura-2); assay type: cell-based
Procedure: as §1
TRPV1/CHO cells were seeded in the 96-well clear-bottom black-wall plate (Nunc) at densities of 1-2×10^4 cells/well and grown in 100 μL of culture medium (alpha-MEM supplemented with 10% FBS, 20 mM HEPES, 1 mg/mL geneticin and 1% antibiotic-antimycotic mixed stock solution) for 1-2 days before the experiment.
(2) The 96-well plate was incubated at 37° C. for 45 min.
(3) The loading buffer was removed from each well. […] The wells were then refilled with 80 μL of measuring buffer.
(4) After an incubation at 4° C. for 15 min, the 96-well plate was transferred to FDSS-3000 (Hamamatsu Photonics, Japan).
(5) The Fura-2 fluorescent intensity was monitored at a wavelength of 340 nm and at 380 nm, respectively, at a rate of 0.5 Hz for a total of 240 seconds. After 16 time points (32 sec) of baseline detection, 20 μL of agonist solution was added to each well. The final volume was 100 μL/well.
(6) Fluorescence intensity ratio refers to the fluorescence intensity at 340 nm over the fluorescence intensity at 380 nm at a particular time point. The baseline was set as the average of the fluorescent intensity ratios for the first 16 time points before the addition of agonist solution. The maximum response was the highest fluorescent intensity ratio during the 60 time points following addition of agonist solution.
(7) Maximal signal ratios from each well were calculated as output data using the FDSS-3000 analysis program. Data were analyzed using Excel (Microsoft) and XLfit (idbs) software.
Two different agonist solutions with different H2SO4 concentrations were used for the pH assay (FIG. 3A). For one half of a 96-well plate one agonist solution was used, for the other half the other agonist solution. The agonist solutions were obtained by diluting sulfuric acid (H2SO4, 1M) with measuring buffer. The concentrations for the two agonist solutions were determined as described above in Section 2 of Protocol 2.
The sulfuric acid concentrations between the two agonist solutions differed by 0.5 mM. […] After 1:4 dilution of the agonist solutions, the final sulfuric acid concentration was 3.2 mM and 3.3 mM, respectively. The resulting pH value for the pH assay was 5.0 to 5.1.
Test compounds were dissolved in DMSO to yield 1 mM stock solutions. […] The thereby-obtained solutions were further diluted in measuring buffer (1:100) as 10× stock serial dilutions with a DMSO concentration of 1%. 10 μL of a 10× stock was added into each well at step 3.3.(4) of Protocol 2.
Steps (1) and (2) of this Assay were the same as steps 2.2.(1) and 2.2.(2) of Protocol 2, respectively.
(3) The cells were washed twice with 150 μL of measuring buffer (mentioned in 2.2.(3) of Protocol 2, no probenecid). The wells were subsequently refilled with 70 μL of measuring buffer.
(4) Either 10 μl of measuring buffer or 10 μL of 10× stock serial dilution of test compound (described in 3.2. above) were applied to each well. Usually, only one test compound was tested per 96-well plate. The number of replicates per 96-well plate for a particular antagonist at a particular concentration was 7×2 since two different sulfuric acid concentrations were used per 96-well plate (N=7×2) (FIG. 3).
Step (5) was the same as 2.2.(4) above.
(6) Fura-2 fluorescent intensity was monitored as described in 2.2.(5) above. After 16 time points of baseline detection, 20 μL of agonist solution (measuring buffer titrated with H2SO4 to yield pH 5.0-5.1 when mixed 1:4 with the measuring buffer containing test compound) was added to each well (final volume 100 μL/well).
Steps (7) and (8) were as described in 2.2.(6) and 2.2.(7) above, respectively.
(1) The pH values of the buffer in the wells of A1→H1 and A7→H7 (longitudinally; FIG. 3) were measured one by one using a portable pH meter.

[3] = TRPV1/CHO cells, capsaicin 100 nM final, read-out: IC50 value by the Capsaicin-Based Assay
[4] = TRPV1/CHO cells, pH 5.0-5.1, read-out: IC50 value by the pH-Based Assay
[5] = TRPV1/CHO cells, capsaicin 100 nM final, compounds of the invention, read-out: TRPV1 IC50 Potency (Capsaicin-Based Assay), Compound IC50

T1 sequence (Q8NER1 whole entry): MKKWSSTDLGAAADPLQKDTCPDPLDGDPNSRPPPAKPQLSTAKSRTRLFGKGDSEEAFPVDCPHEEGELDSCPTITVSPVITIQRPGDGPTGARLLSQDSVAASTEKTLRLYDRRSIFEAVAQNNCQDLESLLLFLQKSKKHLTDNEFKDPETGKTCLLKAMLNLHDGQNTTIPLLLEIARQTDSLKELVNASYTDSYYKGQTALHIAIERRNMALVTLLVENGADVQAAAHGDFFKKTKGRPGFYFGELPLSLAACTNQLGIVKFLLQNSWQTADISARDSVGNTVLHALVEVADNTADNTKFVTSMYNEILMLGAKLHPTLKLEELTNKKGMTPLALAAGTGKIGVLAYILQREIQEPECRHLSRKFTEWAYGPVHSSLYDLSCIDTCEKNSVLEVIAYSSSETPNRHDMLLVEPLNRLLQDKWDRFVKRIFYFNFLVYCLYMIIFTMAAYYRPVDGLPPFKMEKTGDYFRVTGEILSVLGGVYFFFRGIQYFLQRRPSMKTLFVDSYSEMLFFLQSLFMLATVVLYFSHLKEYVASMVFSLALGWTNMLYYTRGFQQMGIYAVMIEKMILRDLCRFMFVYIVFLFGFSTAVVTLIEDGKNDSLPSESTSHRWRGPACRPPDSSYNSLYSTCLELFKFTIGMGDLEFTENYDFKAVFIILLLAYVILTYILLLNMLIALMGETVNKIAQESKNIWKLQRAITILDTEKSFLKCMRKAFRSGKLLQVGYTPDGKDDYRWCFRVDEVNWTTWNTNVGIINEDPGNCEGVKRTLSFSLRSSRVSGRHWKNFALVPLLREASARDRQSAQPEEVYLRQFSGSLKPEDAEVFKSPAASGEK

Structure (SMILES): Cc1cc(NC(=O)N2CC=C(c3ncc(C[C@@H](O)CO)cc3Cl)CC2)ccc1C(F)(F)F [drawing 501]
- IC50 [1, 5]: 40 nM

Structure (SMILES): O=C(Nc1nc2ccc(F)cc2s1)N1CCC(F)(c2ncc(C[C@H](O)CO)cc2Cl)CC1
- IC50 [1, 5]: 116 nM

Structure (SMILES): C[C@@H]1CN(c2ncc(C[C@@H](O)CO)cc2F)CCN1C(=O)Nc1nc2ccc(Cl)cc2s1 [drawing 500]
- IC50 [1, 5]: 8 nM

Structure (SMILES): O=C(Nc1nc2cc(F)c(F)cc2s1)N1CCN(c2ncc(C[C@H](O)CO)cc2F)CC1 [AFB]
- IC50 [1]: ≤ 50 nM
- IC50 [2]: ≤ 50 nM

Structure (SMILES): Cc1ccc2nc(NC(=O)N3CCN(c4ncc(C[C@H](O)CO)cc4Cl)C[C@@H]3C)sc2c1 [AEC]
- IC50 [1, 3]: ≤ 50 nM
- IC50 [2, 4]: ≤ 50 nM

Structure (SMILES): CC1(C)CN(c2ncc(C[C@H](O)CO)cc2F)CCN1C(=O)Nc1nc2ccc(F)cc2s1 [AFT]
- IC50 [1, 3]: ≤ 50 nM
- IC50 [2, 4]: ≤ 50 nM

Structure (SMILES): Cc1cc(NC(=O)N2CCC(F)(c3ncc(C[C@@H](O)CO)cc3C)CC2)ccc1OC(F)(F)F [ACF, (R)-4-(5-(2,3-dihydroxypropyl)-3-methylpyridin-2-yl)-4-fluoro-N-(3-methyl-4-(trifluoromethoxy)phenyl)piperidine-1-carboxamide]
- IC50 [1, 3]: ≤ 50 nM
- IC50 [2, 4]: ≤ 50 nM

Structure (SMILES): Cc1cc(NC(=O)N2CCC(F)(c3ncc(C[C@@H](O)CO)cc3Cl)CC2)ccc1C(F)(F)F [ACI, (R)-4-(3-Chloro-5-(2,3-dihydroxypropyl)pyridin-2-yl)-4-fluoro-N-(3-methyl-4-(trifluoromethyl)phenyl)piperidine-1-carboxamide]
- IC50 [1, 3]: ≤ 50 nM
- IC50 [2, 4]: ≤ 50 nM

Structure (SMILES): C[C@@H]1CN(c2ncc(C[C@H](O)CO)cc2F)CCN1C(=O)Nc1nc2ccc(F)cc2s1 [AGZ]
- IC50 [1, 3]: ≤ 50 nM
- IC50 [2, 4]: ≤ 50 nM

Structure (SMILES): C[C@H]1CN(c2ncc(C[C@H](O)CO)cc2Cl)CCN1C(=O)Nc1nc2ccccc2s1 [AED]
- IC50 [1, 3]: ≤ 50 nM
- IC50 [2, 4]: ≤ 50 nM

Now from value to compound:

- IC50 [1, 3]: ≤ 50 nM
- IC50 [2, 4]: ≤ 50 nM
Structure (SMILES): C[C@H]1CN(c2ncc(C[C@H](O)CO)cc2F)CCN1C(=O)Nc1nc2ccc(Cl)cc2s1 [AEN]

- IC50 [1, 3]: ≤ 50 nM
- IC50 [2, 4]: ≤ 50 nM
Structure (SMILES): Cc1cc(NC(=O)N2CCC(F)(c3ncc(C[C@@H](O)CO)cc3C)CC2)ccc1C(F)(F)F [ACE, (R)-4-(5-(2,3-dihydroxypropyl)-3-methylpyridin-2-yl)-4-fluoro-N-(3-methyl-4-(trifluoromethyl)phenyl)piperidine-1-carboxamide]

- IC50 [1, 3]: ≤ 50 nM
- IC50 [2, 4]: ≤ 50 nM
Structure (SMILES): C[C@H]1CN(c2ncc(C[C@H](O)CO)cc2C(F)(F)F)CCN1C(=O)Nc1nc2ccccc2s1 [AGY]

- IC50 [1, 3]: ≤ 50 nM
- IC50 [2, 4]: ≤ 50 nM
Structure (SMILES): Cc1cc(C[C@@H](O)CO)cnc1N1CCN(C(=O)Nc2nc3ccc(Cl)cc3s2)[C@H](C)C1 [ADJ, (R)-N-(6-chlorobenzo[d]thiazol-2-yl)-4-{5-[(R)-2,3-dihydroxypropyl]-3-methylpyridin-2-yl}-2-methylpiperazine-1-carboxamide]

- IC50 [1, 3]: ≤ 50 nM
Structure (SMILES): C[C@@H]1CN(c2ncc(C[C@@H](O)CO)cc2Cl)CCN1C(=O)Nc1nc2ccc(F)cc2s1 [ACU, (R)-4-(3-chloro-5-((R)-2,3-dihydroxypropyl)pyridin-2-yl)-N-(6-fluorobenzo[d]thiazol-2-yl)-2-methylpiperazine-1-carboxamide]
